Test results from patent publication US9121022B2, “Method for controlling herbicide-resistant plants” (priority 2010, dated 2015).
Structures can show the parent of a compound that is named as a salt. {Alexa488} = Alexa Fluor 488 (Invitrogen) label

Experiments:
[1] = test system: glyphosate-resistant Palmer amaranth plants; experiment: additives (salts, EDTA, glycerin) to polynucleotide spray solutions, percent control and plant height (Example 35, Tables 26-28); type: in vivo; conditions: additive in spray solution
Text: The efficacy of different substances (including salts, a chelating agent, a humectant, and polyamines) as polynucleotide transferring agents or as enhancers of a known polynucleotide transferring agent was investigated.

[2] = test system: glyphosate-resistant Palmer amaranth containing 16 copies of EPSPS; experiment: glyphosate counter-ions with EPSPS polynucleotides, percent control and plant height (Example 35, Table 29); type: in vivo; conditions: for Palmer control (%): Table 29: glyphosate salt 1682 g acid equivalent per hectare, with or without EPSPS polynucleotides IDT [1]-[4] in 0.5% SILWET L-77, 2% ammonium sulfate, 16-copy EPSPS Palmer amaranth, 3 replicates
Text: FIG. 38 depicts the effect of varying glyphosate counter-ions on herbicidal activity (presented as percent of weed control/kill, and as plant height) of topically applied polynucleotides (RNA) on glyphosate-resistant Palmer amaranth plants. A mixture of EPSPS polynucleotides (IDT [1] (SEQ ID NO:83-84), IDT [2] (SEQ ID NO:85-86), IDT [3] (SEQ ID NO:87-88), and IDT [4] (SEQ ID NO:89-90)) in 0.5% SILWET L-77® brand surfactant, 2% ammonium sulfate in 10 millimolar sodium phosphate buffer, pH 6.8 with 0.2% Roundup® WeatherMax® carrier (MON56151 tallowamine surfactant blend of tallowamine (16-18C) and cocoamine (12-14C) in the ratio of 55:45) and 1682 g acid equivalent per hectare of one of the glyphosate salts; K+ glyphosate, isopropylammonium+ glyphosate or monoethanolammonium+ glyphosate at 215 liters/acre by Milli spray on 3 replicates of 4-6 inch glyphosate-resistant Palmer amaranth containing 16 copies of EPSPS. Plant height was scored at 21 days after glyphosate treatment.

[3] = test system: Glyphosate-resistant Palmer amaranth plants (33, 36, or 57 copies EPSPS); experiment: spermine, spermidine or ammonium sulfate with dsRNA then glyphosate (Example 35, FIG. 39); type: in vivo; conditions: for performance compared with 2% ammonium sulfate: 1 or 10 millimolar
Protocol: The effect of the polyamine cations spermine (N,N′-bis(3-aminopropyl)butane-1,4-diamine) and spermidine (N-(3-aminopropyl)butane-1,4-diamine) on herbicidal activity of topically applied polynucleotides (RNA) on glyphosate-resistant Palmer amaranth plants was investigated. […] The dsRNA polynucleotide solutions were prepared with either 1 or 10 millimolar spermine or spermidine or 2% ammonium sulfate, in a 10 millimolar sodium phosphate (pH 6.8) buffer. Control solutions (without polynucleotides) were prepared with either 1 or 10 millimolar spermine or spermidine or 2% ammonium sulfate, in a 10 millimolar sodium phosphate (pH 6.8) buffer. Glyphosate-resistant Palmer amaranth plants (33, 36, or 57 copies EPSPS) were pre-sprayed with 1% SILWET L-77® brand surfactant. The dsRNA polynucleotide solutions (11.6 grams/acre) or buffer solutions were applied as drops on four lower fully expanded leaves of glyphosate resistant Palmer amaranth by pipetting. Two days following polynucleotide treatment the plants were sprayed with glyphosate (3360 g acid equivalent per hectare of Roundup® WeatherMAX® brand herbicide).

[4] = test system: detached leaves of glyphosate-resistant Palmer amaranth; experiment: petiole uptake of fluorescently labelled ssDNA oligonucleotide into detached leaves (Example 9); parameters: species or system Palmer amaranth (Amaranthus palmeri)
Protocol: Petioles of detached leaves of glyphosate-resistant Palmer amaranth were placed in 200 mM sucrose solution with fluorescently labelled ssDNA oligonucleotides (SEQ ID NO:15). Leaf images were taken by Bio-Rad PharosFX imager equipped with a 488 nm laser from 4 h up to 48 h after uptake through petiole. Leaves incubated with 200 mM sucrose alone served as control.

[5] = test system: Nicotiana benthamiana phytoene desaturase; experiment: single PDS ssDNA 22-mer on tobacco: bleaching of organs, seed set, germination (Example 12); type: in vivo
Protocol: Four-week old tobacco (Nicotiana benthamiana) plants were used in all treatments. Two fully expanded leaves (one cotyledon, one true leaf) were conditioned by dipping into freshly made surfactant solution (0.1% SILWET L-77® brand surfactant in double-distilled water) for a few seconds and allowed to dry for 15-30 minutes. Twenty microliters of a single-stranded DNA (ssDNA) 22-mer oligonucleotide with the sequence […] (SEQ ID NO:39), corresponding to the nucleotides at positions 1099-1120 of Nicotiana benthamiana phytoene desaturase (SEQ ID NO:2) was applied as a 25 micromolar solution in 0.01% SILWET L-77® brand surfactant in 5 millimolar sodium phosphate buffer, pH 6.8 to the top surface of each conditioned leaf for a total of 40 microliters (1 nanomole oligonucleotide) per plant. Control plants were treated with the SILWET® brand surfactant solution without the DNA oligonucleotide.
Flowers of both control and ssDNA-treated plants were allowed to set seed. Seeds were collected from mature fruits, weighed, and allowed to germinate. Seed weights were identical (about 11 mg per 100 seeds) and seed morphology appeared similar between the ssDNA-treated and the control plants.
In a separate assay using a similar procedure, tobacco plants were conditioned by dipping in 0.1% SILWET L-77® brand surfactant in double-distilled water, allowed to dry for 15-30 minutes, and treated with the PDS ssDNA 22-mer (SEQ ID NO:39) applied as a 25 micromolar solution in 0.01% SILWET L-77® brand surfactant in 5 millimolar sodium phosphate buffer, pH 6.8 to the top surface of each conditioned leaf for a total of 40 microliters (1 nanomole oligonucleotide) per plant. Other plants were not conditioned with a surfactant treatment, but were treated only with 1 nanomole of the PDS ssDNA 22-mer (SEQ ID NO:39) applied either by infiltration with a needleless syringe (shown in FIG. 18B) or by hand application of drops to the leaf surface (not shown in FIG. 18B), and either as a 25 micromolar solution in 0.01% SILWET L-77® brand surfactant in 5 millimolar sodium phosphate buffer, pH 6.8 or as a 25 micromolar solution in 5 millimolar sodium phosphate buffer, pH 6.8 (without surfactant). Negative control plants were treated with the SILWET® brand surfactant buffer solution without the DNA oligonucleotide. Results are depicted in FIG. 18B.

[6] = test system: volunteer glyphosate-resistant corn plants; experiment: synthetic Pol III gene dsDNA on volunteer glyphosate-resistant corn in soybean (Example 8); type: in vivo; conditions: glyphosate 7 days after dsDNA; 15 days later
Text: This example illustrates the utility of employing a synthetic Pol III gene in compositions and methods of this invention. With reference to SEQ ID NO:3 and FIG. 2, a synthetic Pol III gene is created using elements from an Arabidopsis thaliana U6 snRNA gene to provide a dsDNA molecule with two copies of RGCCCR elements (bold and underlined), an upstream sequence element (USE) having the sequence “[…]” (SEQ ID NO:4, bold and underlined), a TATA box (bold and underlined), a “G” nucleotide (bold and underlined), anti-sense DNA (italics) corresponding to a bacterial DNA encoding an EPSPS protein (see U.S. Pat. RE39,247) that imparts resistance to glyphosate herbicide when expressed in transgenic corn plants, an “[…]” element (SEQ ID NO:5, bold and underlined) embedded in the anti-sense DNA, an “[…]” element (SEQ ID NO:6, bold and underlined) followed by sense DNA (lower case) and a “TTTTTT” terminator element (SEQ ID NO:7, bold and underlined). A solution of 0.1 wt % SILWET L-77® brand organosilicone surfactant and a solution of multiple copies of the dsDNA molecule are sprayed onto leaves of volunteer glyphosate-resistant corn plants growing in a field of glyphosate-resistant soybean plants, followed 7 days later by treatment with Roundup WeatherMAX® brand glyphosate herbicide. […]

For `OCC(O)CO` [Glycerin, glycerin], the “effect of additive on efficacy of the polynucleotides and herbicidal activity of glyphosate” value (from here on “effect of additive”) [1] was “enhance the efficacy of the polynucleotides”.

`CC(C)N.O=C(O)CNCP(=O)(O)O` [IPA + glyphosate] was tested, and the “Palmer control (%)” value [2] was 9%.

In the case of `O=C(O)CNCP(=O)([O-])O.[K+]` [K + glyphosate], the “Palmer control (%)” value [2] is reported as 23%.

In the case of `NCCO.O=C(O)CNCP(=O)(O)O` [MEA + glyphosate], the “Palmer control (%)” value [2] is reported as 9%.

For `Cl.N` [ammonium chloride], the “effect of additive” value [1] was “act similarly to ammonium sulfate”.

With `O=C(O)CN(CCN(CC(=O)O)CC(=O)O)CC(=O)O` [ethylenediaminetetraacetic acid (EDTA), ethylenediaminetetraacetic acid] the “effect of additive” value [1] was “act similarly to 2% ammonium sulfate”.

`O=C(O)CNCP(=O)(O)O` [isopropylammonium salt of glyphosate, glyphosate, reference compound] was tested, and the “herbicidal activity by glyphosate salt” value ([2]; 1682 g ae/ha glyphosate salt with IDT [1]-[4], 21 days after glyphosate treatment) was “better herbicidal activity compared to the potassium salt”.

With `NCCCCNCCCN` [spermidine, N-(3-aminopropyl)butane-1,4-diamine] the “effect on 33-copy plants of polyamine alone” value ([3]; 10 mM, without polynucleotides) was “stunted” and the “performance compared with 2% ammonium sulfate” value [3] was “neither spermine nor spermidine at 1 or 10 millimolar performed as well as 2% ammonium sulfate”.

`NCCCNCCCCNCCCN` [spermine, N,N′-bis(3-aminopropyl)butane-1,4-diamine] was tested, and the “performance compared with 2% ammonium sulfate” value [3] was “neither spermine nor spermidine at 1 or 10 millimolar performed as well as 2% ammonium sulfate”.

With `CCCC[P+](CCCC)(CCCC)CCCC.[Br-]` [tetrabutylphosphonium bromide] the “effect of additive” value [1] was “act similarly to ammonium sulfate”.

“ACCCTCCACGACTGCCCTTT (DNA, 5' {Alexa488}, backbone not given here; listed as Amaranthus palmeri) [Anti-sense_PO1_488, ssDNA anti-sense to Amaranthus palmeri EPSPS]” was tested, and the “time of release from vascular tissue into cells” value ([4]; after treatment) was 8 h and the “vascular uptake into leaf” value ([4]; petiole uptake in 200 mM sucrose, imaged 4 h to 48 h) was “slightly time-dependent vascular uptake”.

“GGCAGTACAATTAAAGGAGATG (DNA, backbone not given here; listed as Nicotiana benthamiana) [SEQ ID NO:39]” was tested, and the “bleaching without surfactant conditioning (FIG. 18B)” value ([5]; 1 nanomole by infiltration or hand application of drops, no conditioning) was “displayed bleaching of apical leaves, stems, and flowers”, the “bleaching of apical leaves, stems, and flowers (FIG. 18A)” value ([5]; 1 nanomole per plant after surfactant conditioning) was “all displayed bleaching” and the germination rate ([5]; seeds from ssDNA-treated plants, control 95 out of 100) was 4 out of 100. For the same molecule, the seed weight ([5]; seeds from ssDNA-treated plants, identical to control) was “about 11 mg per 100 seeds”.

B1: synthetic Pol III gene: dsDNA from Arabidopsis U6 snRNA gene elements with anti-sense and sense DNA of bacterial EPSPS (nucleic acid)
DNA: GGCCCATAGGCCTTTTTCTAAAATAGGCCCATTTAAGCTATTAACAATCTTCAAAAGTACCACATCGCTTAGGTAAAGAAAGCAGCTGAGTTTATATATGGTTAGAGACGAAGTAGTGATTGCGACGAGCGACGTCTCGCCCTCATCGCAATCCACGCCATTGAGCTTGAGGCCATTGGCGACGGCCGAGAGGCGGTCGCTTAAGATTAGCATGTCCTTGACGCGGAGTTCTTCCAGACCGTTCATCACGGTCGCCCCTTCCGCGAAGGCGGCGGCGACAGCGAGAATCGGATATTCGTCGATCATCGAAGGCGCGCGGTCTTCCGGCACCGTGACGCATAAACACGGTGCCGGAAGACCGCGCGCCTTCGATGATCGACGAATATCCGATTCTCGCTGTCGCCGCCGCCTTCGCGGAAGGGGCGACCGTGATGAACGGTCTGGAAGAACTCCGCGTCAAGGAAAGCGACCGCCTCTCGGCCGTCGCCAATGGCCTCAAGCTCAATGGCGTGGATTGCGATGAGGGCGAGACGTCGCTCGTCGTTTTTTTTGGCAAAAA
In the case of B1, the “condition of soybean crop plants” value [6] is reported as “thriving” and the “condition of volunteer corn plants” value [6] is reported as “dead”.
